Assay results: ChEMBL document CHEMBL5465560, “Selectivity Literature for EUbOPEN Chemogenomic Library” (2024)

How the values were obtained:
[1] = target: Histone-lysine N-methyltransferase KMT5B (Homo sapiens) (UniProt Q4FZB7); assay: Selectivity interaction (Methyltransferase screen (radiometric assays, panel of 8 PRMTs, 21 protein lysine methyltransferases, 3 DNA methyltransferases, and one RNA methyltransferase)) EUB0000271b SUV420H1
[2] = target: Protein kinase C delta type (Homo sapiens) (UniProt Q05655); assay: Selectivity interaction (Ambit KINOMEscan and KiNATiv profiling in Jurkat cells) EUB0000090b PRKCD; type: cell-based; details: at 1 µM
[3] = target: Angiopoietin-1 receptor (Homo sapiens) (UniProt Q02763); details: at 10 µM
[4] = target: T1, Myosin light chain kinase (Homo sapiens) (UniProt Q32MK0); assay: Selectivity interaction (KinomeScan (DiscoverX)) EUB0000229b MYLK3; details: at 10 µM
T1 sequence (whole entry): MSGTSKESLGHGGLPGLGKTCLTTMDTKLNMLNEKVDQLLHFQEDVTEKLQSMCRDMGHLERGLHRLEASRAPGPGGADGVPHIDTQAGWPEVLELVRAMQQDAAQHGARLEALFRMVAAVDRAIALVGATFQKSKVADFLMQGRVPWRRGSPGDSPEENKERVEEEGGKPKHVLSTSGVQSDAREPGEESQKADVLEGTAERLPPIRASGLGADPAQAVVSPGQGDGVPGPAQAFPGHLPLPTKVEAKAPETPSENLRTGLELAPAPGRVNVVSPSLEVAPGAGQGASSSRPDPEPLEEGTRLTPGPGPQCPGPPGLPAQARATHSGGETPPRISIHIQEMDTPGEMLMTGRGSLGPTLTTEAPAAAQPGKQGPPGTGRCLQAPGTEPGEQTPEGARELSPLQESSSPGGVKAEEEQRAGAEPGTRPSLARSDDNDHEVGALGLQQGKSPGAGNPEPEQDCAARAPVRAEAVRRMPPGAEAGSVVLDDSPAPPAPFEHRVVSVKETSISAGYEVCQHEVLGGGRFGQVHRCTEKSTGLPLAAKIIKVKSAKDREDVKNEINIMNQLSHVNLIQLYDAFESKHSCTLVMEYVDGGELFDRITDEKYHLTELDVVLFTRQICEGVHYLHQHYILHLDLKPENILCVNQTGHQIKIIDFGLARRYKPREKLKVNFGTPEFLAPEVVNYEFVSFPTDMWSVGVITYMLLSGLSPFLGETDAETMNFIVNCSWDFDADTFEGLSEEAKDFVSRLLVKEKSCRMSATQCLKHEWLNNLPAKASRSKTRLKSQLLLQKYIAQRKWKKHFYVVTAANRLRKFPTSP

[5] = test system: Epidermal growth factor receptor (Homo sapiens), P00533 [UNDEFINED MUTATION]; assay: Selectivity interaction (ProQinase) EUB0000171b EGFR; details: at 5 µM
[6] = target: Dual specificity tyrosine-phosphorylation-regulated kinase 1A (Homo sapiens, UniProt Q13627); assay: Selectivity interaction (ProQinase) EUB0000171b DYRK1A
[7] = target: Glycogen synthase kinase-3 beta (Homo sapiens, UniProt P49841); assay: Selectivity interaction (KinomeScan (DiscoverX)) EUB0001049a GSK3B; details: at 1 µM
[8] = target: T2, Mitogen-activated protein kinase kinase kinase kinase 3 (Homo sapiens) (UniProt Q8IVH8); assay: Selectivity interaction (KinomeScan (DiscoverX)) EUB0000666a MAP4K3; details: at 10 µM
T2 sequence (whole entry): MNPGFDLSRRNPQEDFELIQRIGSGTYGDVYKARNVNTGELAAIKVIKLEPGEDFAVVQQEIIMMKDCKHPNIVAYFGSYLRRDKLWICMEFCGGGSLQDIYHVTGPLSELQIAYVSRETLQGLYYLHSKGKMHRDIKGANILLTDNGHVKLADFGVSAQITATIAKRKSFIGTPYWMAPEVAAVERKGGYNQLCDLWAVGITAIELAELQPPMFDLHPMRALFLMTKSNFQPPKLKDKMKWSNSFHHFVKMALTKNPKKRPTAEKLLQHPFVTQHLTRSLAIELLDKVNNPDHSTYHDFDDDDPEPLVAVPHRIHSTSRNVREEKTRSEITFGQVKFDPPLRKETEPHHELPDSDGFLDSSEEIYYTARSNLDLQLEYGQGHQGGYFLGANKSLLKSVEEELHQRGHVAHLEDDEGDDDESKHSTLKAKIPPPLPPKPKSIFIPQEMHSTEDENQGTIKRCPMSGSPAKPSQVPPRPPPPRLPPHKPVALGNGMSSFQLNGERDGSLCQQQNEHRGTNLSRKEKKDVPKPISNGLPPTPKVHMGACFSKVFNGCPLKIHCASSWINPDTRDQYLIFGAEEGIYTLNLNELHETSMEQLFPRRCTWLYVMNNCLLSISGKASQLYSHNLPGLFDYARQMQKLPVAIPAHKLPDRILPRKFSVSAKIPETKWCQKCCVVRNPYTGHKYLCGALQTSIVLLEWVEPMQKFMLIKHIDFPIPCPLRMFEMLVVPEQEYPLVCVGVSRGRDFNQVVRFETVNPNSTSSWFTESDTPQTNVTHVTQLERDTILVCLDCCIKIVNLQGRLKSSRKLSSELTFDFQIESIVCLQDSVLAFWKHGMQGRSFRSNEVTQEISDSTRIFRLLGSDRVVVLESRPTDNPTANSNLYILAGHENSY

[9] = target: Protein-tyrosine kinase 6 (Homo sapiens, UniProt Q13882); assay: Selectivity interaction (KinomeScan (DiscoverX)) EUB0000666a PTK6; details: at 10 µM
[10] = target: Serine/threonine-protein kinase PAK 1 (Homo sapiens) (UniProt Q13153); assay: Selectivity interaction (Kinase panel (Z-LYTE Assay)) EUB0001632a PAK1; details: at 10 µM
Sequence of Serine/threonine-protein kinase PAK 1 (Homo sapiens) (Q13153 whole entry): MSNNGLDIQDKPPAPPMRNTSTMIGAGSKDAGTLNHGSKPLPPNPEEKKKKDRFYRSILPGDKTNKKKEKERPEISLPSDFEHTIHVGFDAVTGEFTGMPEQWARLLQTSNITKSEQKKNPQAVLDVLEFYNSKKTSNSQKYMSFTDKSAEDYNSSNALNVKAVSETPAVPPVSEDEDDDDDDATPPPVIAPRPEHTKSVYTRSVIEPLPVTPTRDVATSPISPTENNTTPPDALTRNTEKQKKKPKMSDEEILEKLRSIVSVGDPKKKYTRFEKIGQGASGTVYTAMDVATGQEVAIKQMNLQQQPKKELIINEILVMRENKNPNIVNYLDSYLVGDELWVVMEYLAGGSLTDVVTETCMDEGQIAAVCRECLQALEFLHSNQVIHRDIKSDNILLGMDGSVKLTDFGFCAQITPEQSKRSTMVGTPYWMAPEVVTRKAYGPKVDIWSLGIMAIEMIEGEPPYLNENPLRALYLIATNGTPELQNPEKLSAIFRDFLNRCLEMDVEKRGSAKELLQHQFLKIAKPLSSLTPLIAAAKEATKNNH

Sequence of Histone-lysine N-methyltransferase KMT5B (Homo sapiens) (Q4FZB7 whole entry, looked up): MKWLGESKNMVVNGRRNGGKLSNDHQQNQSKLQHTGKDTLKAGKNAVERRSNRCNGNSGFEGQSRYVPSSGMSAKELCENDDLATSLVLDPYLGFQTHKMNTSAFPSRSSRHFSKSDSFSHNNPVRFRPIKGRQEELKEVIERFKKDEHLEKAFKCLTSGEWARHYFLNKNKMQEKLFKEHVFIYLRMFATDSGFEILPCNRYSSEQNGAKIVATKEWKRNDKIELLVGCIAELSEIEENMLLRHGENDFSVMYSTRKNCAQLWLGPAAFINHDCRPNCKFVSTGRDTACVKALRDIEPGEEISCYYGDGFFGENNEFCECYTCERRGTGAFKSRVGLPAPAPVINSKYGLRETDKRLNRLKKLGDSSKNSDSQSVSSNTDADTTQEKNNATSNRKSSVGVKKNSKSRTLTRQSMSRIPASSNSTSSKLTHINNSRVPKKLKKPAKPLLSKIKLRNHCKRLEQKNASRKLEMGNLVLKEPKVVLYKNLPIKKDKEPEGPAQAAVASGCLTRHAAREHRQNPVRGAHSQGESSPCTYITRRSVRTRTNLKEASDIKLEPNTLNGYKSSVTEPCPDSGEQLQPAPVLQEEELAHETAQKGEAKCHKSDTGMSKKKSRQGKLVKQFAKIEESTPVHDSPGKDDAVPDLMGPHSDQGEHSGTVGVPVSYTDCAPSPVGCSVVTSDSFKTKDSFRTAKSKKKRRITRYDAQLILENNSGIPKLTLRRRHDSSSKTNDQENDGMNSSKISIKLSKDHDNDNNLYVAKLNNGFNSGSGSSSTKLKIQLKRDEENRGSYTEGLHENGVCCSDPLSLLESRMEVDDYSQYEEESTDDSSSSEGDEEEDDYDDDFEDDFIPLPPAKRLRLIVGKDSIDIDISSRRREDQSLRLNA
Sequence of Protein kinase C delta type (Homo sapiens) (Q05655 whole entry, looked up): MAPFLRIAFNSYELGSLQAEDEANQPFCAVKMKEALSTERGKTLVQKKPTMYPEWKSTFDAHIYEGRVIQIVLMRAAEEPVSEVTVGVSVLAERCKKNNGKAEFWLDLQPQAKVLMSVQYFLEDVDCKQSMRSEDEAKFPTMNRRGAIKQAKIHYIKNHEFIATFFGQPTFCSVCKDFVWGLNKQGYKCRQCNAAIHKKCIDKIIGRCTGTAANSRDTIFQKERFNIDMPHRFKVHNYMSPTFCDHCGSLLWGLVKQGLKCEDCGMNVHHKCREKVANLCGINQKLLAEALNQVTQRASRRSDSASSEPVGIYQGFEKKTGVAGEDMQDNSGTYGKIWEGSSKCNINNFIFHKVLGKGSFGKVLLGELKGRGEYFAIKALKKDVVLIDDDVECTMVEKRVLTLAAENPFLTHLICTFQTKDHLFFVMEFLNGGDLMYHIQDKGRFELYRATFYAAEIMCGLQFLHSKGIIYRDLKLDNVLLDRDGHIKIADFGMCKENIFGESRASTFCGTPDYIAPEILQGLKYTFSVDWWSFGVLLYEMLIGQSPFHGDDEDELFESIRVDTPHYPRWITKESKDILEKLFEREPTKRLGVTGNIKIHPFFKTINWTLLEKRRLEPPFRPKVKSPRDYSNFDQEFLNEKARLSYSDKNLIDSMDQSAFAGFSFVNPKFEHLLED
Sequence of Glycogen synthase kinase-3 beta (P49841 whole entry, looked up): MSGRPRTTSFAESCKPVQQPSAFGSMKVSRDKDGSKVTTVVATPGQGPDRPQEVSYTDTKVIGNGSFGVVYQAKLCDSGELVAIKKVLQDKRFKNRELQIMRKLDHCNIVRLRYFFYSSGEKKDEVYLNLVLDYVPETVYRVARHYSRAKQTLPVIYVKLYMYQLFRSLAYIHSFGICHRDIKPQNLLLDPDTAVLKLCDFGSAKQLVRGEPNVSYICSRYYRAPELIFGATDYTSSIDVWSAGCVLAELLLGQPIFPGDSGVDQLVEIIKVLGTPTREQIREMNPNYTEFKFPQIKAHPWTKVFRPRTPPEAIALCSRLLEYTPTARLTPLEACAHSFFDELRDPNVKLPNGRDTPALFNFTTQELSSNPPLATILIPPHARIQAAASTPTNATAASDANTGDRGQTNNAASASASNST
Sequence of Epidermal growth factor receptor (Homo sapiens), P00533 [UNDEFINED MUTATION] (P00533 whole entry, looked up, change not shown): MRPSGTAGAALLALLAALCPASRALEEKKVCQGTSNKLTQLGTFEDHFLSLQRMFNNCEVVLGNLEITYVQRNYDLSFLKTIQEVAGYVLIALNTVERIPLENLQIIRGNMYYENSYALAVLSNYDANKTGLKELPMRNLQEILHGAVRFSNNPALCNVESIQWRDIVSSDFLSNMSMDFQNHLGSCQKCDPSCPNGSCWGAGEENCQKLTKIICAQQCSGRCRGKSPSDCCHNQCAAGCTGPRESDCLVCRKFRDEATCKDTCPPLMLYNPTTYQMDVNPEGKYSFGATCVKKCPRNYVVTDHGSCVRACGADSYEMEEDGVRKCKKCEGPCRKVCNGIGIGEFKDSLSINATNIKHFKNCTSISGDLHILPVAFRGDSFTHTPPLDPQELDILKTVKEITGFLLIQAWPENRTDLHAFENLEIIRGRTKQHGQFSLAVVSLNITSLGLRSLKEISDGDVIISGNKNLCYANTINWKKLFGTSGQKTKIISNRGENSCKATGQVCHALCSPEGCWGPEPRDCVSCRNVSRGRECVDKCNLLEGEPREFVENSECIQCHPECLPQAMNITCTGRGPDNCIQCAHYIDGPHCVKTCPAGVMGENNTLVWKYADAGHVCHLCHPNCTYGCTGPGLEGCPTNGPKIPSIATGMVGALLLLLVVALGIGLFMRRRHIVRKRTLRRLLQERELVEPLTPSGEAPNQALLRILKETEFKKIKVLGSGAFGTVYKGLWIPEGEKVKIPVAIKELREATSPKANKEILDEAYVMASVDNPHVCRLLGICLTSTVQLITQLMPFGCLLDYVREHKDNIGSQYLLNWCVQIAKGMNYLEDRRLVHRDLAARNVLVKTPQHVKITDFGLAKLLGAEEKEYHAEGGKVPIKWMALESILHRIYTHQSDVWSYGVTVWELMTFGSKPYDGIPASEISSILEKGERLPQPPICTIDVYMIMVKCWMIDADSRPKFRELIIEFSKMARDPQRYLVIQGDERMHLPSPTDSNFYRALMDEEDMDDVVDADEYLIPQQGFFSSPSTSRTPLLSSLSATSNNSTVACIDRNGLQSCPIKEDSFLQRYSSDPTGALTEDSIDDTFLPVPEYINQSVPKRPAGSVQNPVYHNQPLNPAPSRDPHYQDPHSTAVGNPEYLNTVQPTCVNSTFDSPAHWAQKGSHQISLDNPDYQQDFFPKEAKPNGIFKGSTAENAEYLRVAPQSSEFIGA
Sequence of Protein-tyrosine kinase 6 (Q13882 whole entry, looked up): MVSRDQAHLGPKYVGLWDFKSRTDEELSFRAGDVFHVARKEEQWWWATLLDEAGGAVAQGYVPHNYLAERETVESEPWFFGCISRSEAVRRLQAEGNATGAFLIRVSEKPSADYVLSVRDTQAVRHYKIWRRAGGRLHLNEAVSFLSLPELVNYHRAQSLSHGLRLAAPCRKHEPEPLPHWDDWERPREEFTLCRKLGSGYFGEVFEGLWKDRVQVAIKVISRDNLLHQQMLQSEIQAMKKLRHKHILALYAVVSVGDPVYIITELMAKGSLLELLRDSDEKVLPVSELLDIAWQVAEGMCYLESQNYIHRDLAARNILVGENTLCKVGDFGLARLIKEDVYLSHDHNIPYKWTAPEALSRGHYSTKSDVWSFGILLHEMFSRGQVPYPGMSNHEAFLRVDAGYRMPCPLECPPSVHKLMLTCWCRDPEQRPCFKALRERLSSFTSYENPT

Which results are given for `Cc1cc(C)cc([C@@H]2c3cc(C)ccc3NC(=O)CN2C(=O)c2ccc(Br)s2)c1`?
% of activity ([1]; at 1 µM): 103%; % of activity ([1]; at 10 µM): 101%

How did the % of control [2] turn out when `CN(C)C/C=C/C(=O)Nc1ccc(C(=O)N2CCCC(Nc3ncc(Cl)c(-c4c[nH]c5ccccc45)n3)C2)cc1` (configuration not stated) was run?
Its % of control is 75%.

How did the % of control [3] turn out when `Cc1cc([C@@H](C)Nc2ccccc2C(=O)O)c2nc(N3CCOCC3)cc(=O)n2c1` [AZD-6482] was run?
The % of control was 100%.

How did the % binding [4] turn out when `COc1cc(N(C)c2ccnc3ccc(C(F)(F)F)cc23)cc(OC)c1OC` was run?
The % binding was 100%.

`C=CC(=O)Nc1cccc(C(=O)Nc2ccc(Nc3cc(-c4[nH]c(SC)nc4C)ccn3)cc2)c1` was tested. Which % of control [5] did it give?
Its % of control is 101%.

What about the % of control ([6]; at 1 µM) of the same compound?
Its % of control is 92%.

What about the % of control ([6]; at 5 µM) of the same compound?
Its % of control is 70%.

`COc1cc(Nc2nc(C)cc(-c3cnn4nc(OC)ccc34)n2)cc(C(F)(F)F)c1` was tested. Which % of control [7] did it give?
The % of control was 100%.

For `O=C(NOC[C@H](O)CO)c1ccc(F)c(F)c1Nc1ccc(I)cc1F`, which % of control [8] is on record?
Its % of control is 87%.

What about the % of control [9] of the same compound?
Its % of control is 46%.

How did the % of control [10] turn out when `Cn1cc(-n2cnc3c(NCc4nc5cc(Cl)c(Cl)cc5[nH]4)nc(N4CCOCC4)nc32)cn1` was run?
The % of control was -0.498%.
